This assay has as its system internal mitochondrial proteases. Put plainly: MALDI-TOF-TOF sequence confirmation of MTS cleavage. Set-up: species or system Kluyveromyces lactis. Conditions: for Peptide detected: RFP sequence (1-9) VSKGEELIK, position 1-9; for cleavage of the MTS: enriched sample, gel piece, trypsin digestion. The method, then:
The enriched sample was analysed on a 15% SDS-PAGE gel and stained with Coomassie blue. After de-staining the gel a piece of the SDS-PAGE gel was cut at the position where the RFP was expected. This was washed extensively in water and analysed by MALDI-TOF-TOF analysis after trypsin digestion. […]

Take “MIS-VII: synthetic mitochondrial targeting sequence (MTS), SEQ ID NO: 2, containing the core RRRA (RLRRRAARSLARSAARR)”: the Peptide detected result was “VSKGEELIK” and the “cleavage of the MTS” value is “cleavage was correct”.
For “MIS-XIII: synthetic mitochondrial targeting sequence (MTS), SEQ ID NO: 3, containing the core RRRA (RAARRRAARR)”, in that order: “VSKGEELIK” and “cleavage was correct”.
“MIS-XIV: synthetic mitochondrial targeting sequence (MTS), SEQ ID NO: 4, containing the core RRRA (RARRRARR)”: the Peptide detected result is given as “VSKGEELIK” and the “cleavage of the MTS” value is given as “cleavage was correct”.

Source of the values: EP2369000A1, “Production of peptides and proteins by accumulation in mitochondria” (3T-Science, S.L., priority 2010, dated 2011).
